This is an account of results in ChEMBL document CHEMBL1201862, “PubChem BioAssay data set” (2004).

Test systems include NCI-H460; SR; SW-620; A498; Hs-578T; U-251; SN12C; NCI-H226; DU-145; SNB-19; OVCAR-8; CCRF-CEM; CAKI-1; Malme-3M; HCT-15; KM12; MDA-MB-231; NCI/ADR-RES; COLO 205; SK-OV-3.
Experiment in all cases: growth of human tumour cells (NCI), 48 h

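In this assay, cells in 96-well plates receive the compound at five concentrations for 48 hours. Endpoints are linearly interpolated between the surrounding concentrations. Abbreviation: GI50, concentration required for 50% inhibition of growth.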 Activity calls are given as the source filed them. No stated cut-off is given here; in the data, active = GI50 up to about 1.1 µM and inactive = higher.

On to `O=C(NCCO)c1ccc(Cl)cc1`, for which the GI50 in the assay on NCI-H460, in the assay with SR, in the assay with SW-620, in the assay with A498, with Hs-578T and with U-251 was > 100 µM (inactive) each time. Moreover, the GI50 was > 100 µM (inactive) with SN12C; > 100 µM (inactive) with NCI-H226; > 100 µM (inactive) in the assay with DU-145; > 100 µM (inactive) with SNB-19; > 100 µM (inactive) in the assay on OVCAR-8; 26.1 µM (inactive) in the assay on CCRF-CEM. The GI50 in the assay on CAKI-1 was > 100 µM (inactive); in the assay on Malme-3M, > 100 µM (inactive); with HCT-15, greater than 100 µM; with KM12 it was > 100 µM (inactive); with MDA-MB-231, > 100 µM (inactive); with NCI/ADR-RES, > 100 µM (inactive).
For the compound `Cc1c(N=C(S)Nc2ccc(Cl)cc2)c(=O)n(-c2ccccc2)n1C`, the GI50 in the assay with NCI-H460, in the assay with SR, in the assay with SW-620, in the assay on A498, with COLO 205 and in the assay with SK-OV-3 was > 100 µM (inactive) in each case. Further, the GI50 with Hs-578T, with U-251, in the assay on NCI-H226, with DU-145, with SNB-19 and with CCRF-CEM was > 100 µM (inactive) throughout. Besides, the GI50 in the assay with CAKI-1 is > 100 µM (inactive); in the assay on Malme-3M, > 100 µM (inactive); in the assay on HCT-15 it was greater than 100 µM; with KM12 it was > 100 µM (inactive); with MDA-MB-231, > 100 µM (inactive); with NCI/ADR-RES, > 100 µM (inactive).
`O=C1CSC(c2c(O)ccc3ccccc23)N1n1c(S)nnc(/C=C/c2c(O)ccc3ccccc23)c1=O` (stereo unspecified): the GI50 in the assay with NCI-H460 was < 0.01 µM (active); in the assay with SR, 0.51 µM (active); with SW-620 it was 0.753 µM (active); in the assay with A498 it was 2.76 µM (inactive); in the assay on Hs-578T it was 44.4 µM (inactive); in the assay with U-251 it was 1.33 µM (inactive). Besides, the GI50 in the assay with SN12C is 0.752 µM (active); in the assay on DU-145, 2.01 µM (inactive); in the assay on SNB-19, 1.69 µM (inactive); in the assay on OVCAR-8, 0.467 µM (active); with CCRF-CEM, 0.244 µM (active); in the assay with CAKI-1, 0.489 µM (active). Also, the GI50 with Malme-3M was 2.22 µM (inactive); in the assay on HCT-15, 0.327 µM; with MDA-MB-231, 0.63 µM (active); with NCI/ADR-RES, 0.851 µM (active).
As to `CN(Nc1cc(=O)[nH]c(=O)[nH]1)c1ccccc1`, the GI50 with NCI-H460, in the assay on SR, in the assay on SW-620, with A498, in the assay with COLO 205 and in the assay with SK-OV-3 was > 100 µM (inactive) each time. For the same compound, the GI50 with Hs-578T was 52 µM (inactive); in the assay with U-251 it was > 100 µM (inactive); in the assay on SN12C, > 100 µM (inactive); with NCI-H226, > 100 µM (inactive); in the assay on DU-145 it was > 100 µM (inactive); with SNB-19 it was > 100 µM (inactive). Also, the GI50 in the assay on OVCAR-8, in the assay on CCRF-CEM, in the assay with CAKI-1, with Malme-3M, in the assay on KM12 and in the assay on MDA-MB-231 was > 100 µM (inactive) each time. The GI50 with NCI/ADR-RES is > 100 µM (inactive).
Take `Cc1ccc(NC(=O)CC(=O)N2N=C(c3ccccc3)C(/N=N/c3ccc(S(=O)(=O)CCOS(=O)(=O)O)cc3)C2=O)cc1` (stereo unspecified): the GI50 was > 100 µM (inactive) in the assay with NCI-H460; > 100 µM (inactive) in the assay on SR; > 100 µM (inactive) with SW-620; > 100 µM (inactive) in the assay with A498; > 100 µM (inactive) in the assay with COLO 205; 29.2 µM (inactive) with Hs-578T. Moreover, the GI50 in the assay with U-251 was 41.8 µM (inactive); in the assay on SN12C it was > 100 µM (inactive); with NCI-H226 it was > 100 µM (inactive); in the assay on DU-145 it was > 100 µM (inactive); in the assay on SNB-19, > 100 µM (inactive); in the assay with OVCAR-8, 64.3 µM (inactive). Also, the GI50 in the assay with CCRF-CEM was > 100 µM (inactive); with CAKI-1, > 100 µM (inactive); with Malme-3M, > 100 µM (inactive); in the assay on HCT-15, greater than 100 µM; in the assay on KM12, 86.3 µM (inactive); with MDA-MB-231, > 100 µM (inactive). For the same compound, the GI50 in the assay on NCI/ADR-RES is > 100 µM (inactive).
As for `O=[N+]([O-])c1ccc(S(=O)(=O)n2c3ccc(Br)cc3c3nc4ccccc4nc32)cc1`, the GI50 with NCI-H460 was > 100 µM (inactive); in the assay on SR, > 100 µM (inactive); in the assay with SW-620, > 100 µM (inactive); with A498, > 100 µM (inactive); in the assay on COLO 205, > 100 µM (inactive); in the assay on Hs-578T, 53.6 µM (inactive). Further, the GI50 with U-251 is > 100 µM (inactive); with SN12C, > 100 µM (inactive); in the assay on NCI-H226, 24 µM (inactive); in the assay with DU-145, > 100 µM (inactive); in the assay with SNB-19, > 100 µM (inactive); in the assay with OVCAR-8 it was > 100 µM (inactive). The GI50 in the assay with CCRF-CEM was 20.7 µM (inactive); with CAKI-1 it was > 100 µM (inactive); with HCT-15, greater than 100 µM; with KM12 it was > 100 µM (inactive); in the assay with MDA-MB-231 it was > 100 µM (inactive); in the assay on NCI/ADR-RES, > 100 µM (inactive).
As to `CCOC(=O)C1CCC(=O)N1C(=O)c1ccccc1Cl` (stereo unspecified), the GI50 with NCI-H460, in the assay with SR, in the assay on SW-620, with A498, in the assay on Hs-578T and in the assay on U-251 was > 100 µM (inactive) each time. For the same compound, the GI50 in the assay with SN12C, in the assay on NCI-H226, in the assay with DU-145, with SNB-19, in the assay with OVCAR-8 and in the assay with CCRF-CEM was > 100 µM (inactive) each time. Moreover, the GI50 in the assay with CAKI-1 was > 100 µM (inactive); in the assay with Malme-3M, > 100 µM (inactive); in the assay on HCT-15, greater than 100 µM; with KM12, > 100 µM (inactive); in the assay with MDA-MB-231, > 100 µM (inactive); with NCI/ADR-RES, > 100 µM (inactive).
Turning to `CSc1nncc2[nH]cnc12`, the GI50 with NCI-H460, in the assay with SR, in the assay with SW-620, in the assay on A498, in the assay with COLO 205 and in the assay on Hs-578T was > 100 µM (inactive) each time. Moreover, the GI50 with U-251, in the assay with SN12C, in the assay on NCI-H226, in the assay with DU-145, in the assay on SNB-19 and with OVCAR-8 was > 100 µM (inactive) throughout. The GI50 in the assay with CCRF-CEM was > 100 µM (inactive); in the assay with CAKI-1, > 100 µM (inactive); in the assay on HCT-15, greater than 100 µM; in the assay with KM12, > 100 µM (inactive); in the assay on MDA-MB-231 it was > 100 µM (inactive); in the assay on NCI/ADR-RES, > 100 µM (inactive).
As for `C/C=C(\C)c1cc(=O)c2c(C)cc3c(c2o1)C(OC)(OC(C)=O)c1c(O)c(C2CC(C)(N(C)C)C(OC(C)=O)C(C)O2)cc(C2CC(N(C)C)C(OC(C)=O)C(C)O2)c1C3=O` (stereo unspecified), the GI50 is 0.0251 µM (active) with SR; 0.237 µM (active) with SW-620; 1.27 µM (inactive) in the assay with A498; 1.24 µM (inactive) with COLO 205; 2.75 µM (inactive) with SK-OV-3; 1.16 µM (inactive) with Hs-578T. Further, the GI50 with U-251 was 0.914 µM (active); in the assay on SN12C, 0.893 µM (active); with NCI-H226, 1.34 µM (inactive); in the assay with DU-145 it was 0.497 µM (active); with SNB-19, 1.78 µM (inactive); in the assay on OVCAR-8, 0.552 µM (active). For the same compound, the GI50 was 0.419 µM (active) with CCRF-CEM; 0.436 µM (active) in the assay on CAKI-1; 0.544 µM (active) in the assay on Malme-3M; 1.05 µM in the assay with HCT-15; 1.14 µM (inactive) in the assay on KM12; 0.178 µM (active) with MDA-MB-231. For the same compound, the GI50 with NCI/ADR-RES is 1.75 µM (inactive).
As to `CCCCCCc1cc2cc(-c3cn4ccsc4n3)c(=O)oc2cc1O`, the GI50 was > 100 µM (inactive) in the assay with NCI-H460; > 100 µM (inactive) with SR; > 79.6 µM (inactive) in the assay with SW-620; > 100 µM (inactive) in the assay with A498; > 100 µM (inactive) with COLO 205; > 100 µM (inactive) in the assay on SK-OV-3. The GI50 in the assay on Hs-578T was 20.4 µM (inactive); with U-251, 45.6 µM (inactive); in the assay with SN12C, > 100 µM (inactive); in the assay with NCI-H226, > 100 µM (inactive); with DU-145 it was > 79.1 µM (inactive); with SNB-19, > 100 µM (inactive). In addition, the GI50 in the assay with OVCAR-8 was > 53.3 µM (inactive); with CCRF-CEM it was > 68.5 µM (inactive); with CAKI-1 it was > 71.1 µM (inactive); with HCT-15, greater than 90.4 µM; with KM12, > 100 µM (inactive); with MDA-MB-231 it was > 75 µM (inactive). In addition, in the assay on NCI/ADR-RES, the GI50 was > 100 µM (inactive).
Regarding `Cc1cc(S(=O)(=O)NC2=NCCCN2)c(S)cc1Cl`, the GI50 in the assay with NCI-H460 is 39.3 µM (inactive); with SR, 21.2 µM (inactive); with SW-620, 19.9 µM (inactive); with A498, > 100 µM (inactive); in the assay with COLO 205 it was 40.4 µM (inactive); in the assay on SK-OV-3, 36.6 µM (inactive). Besides, the GI50 with Hs-578T was 24.5 µM (inactive); in the assay on U-251 it was 34.4 µM (inactive); in the assay on SN12C, 49.4 µM (inactive); in the assay on NCI-H226 it was 22.3 µM (inactive); with DU-145 it was 72.4 µM (inactive); in the assay with SNB-19 it was 40.6 µM (inactive). Besides, the GI50 in the assay on OVCAR-8 was 24.3 µM (inactive); in the assay on CAKI-1, 16.8 µM (inactive); with Malme-3M it was 26.4 µM (inactive); in the assay with HCT-15 it was 43.6 µM; in the assay on KM12, 37.8 µM (inactive); in the assay on MDA-MB-231 it was 72.9 µM (inactive). The GI50 with NCI/ADR-RES was > 100 µM (inactive).
